Measured values from US20040176349A1, “Antibacterial composition” (priority 2001, published 2004).

Key:
E.faecalis 78097 (van B) = assay: Checkerboard microdilution MIC with PFOB, Table 2; format: cell-based
Text: (§1) The aim of the study was to detect any synergy between PFOB and the other antibiotics. For the purposes of the study, synergy was defined in accordance with the FIC (fractional inhibitory concentration) index, as disclosed by Lorian (1991, In “Antibiotics in Laboratory Medicine” 3rd edition, Eds. Williams & Wilkins; esp. p 434-443). In essence, if the combination of test compounds gives at least a 4-fold reduction in the FIC value for each compound, then a synergy may be considered to exist (i.e. FIC of the combination <0.5=synergy; FIC 0.5-2.0=“indifference”; and FIC >2=antagonism).
(§2) In Table 2, results in the checkerboard indicating synergy are hatched, and specific optimum synergistic combinations are boxed.

E. faecalis 5659 (vanA) = assay: Checkerboard microdilution MIC with PFOB, Table 2; format: cell-based
Text: as §1, §2

E. faecalis ATCC 29212 = assay: Checkerboard microdilution MIC with PFOB, Table 2; format: cell-based
Text: as §1, §2

enterococci = assay: Checkerboard study, synergy summary of Example 2; format: cell-based, Enterococcus; conditions: in words
Text: as §1

Enterococcus strains = assay: MIC against Enterococcus strains, summary of Example 1; format: cell-based; conditions: in words
Description: (§3) The minimum inhibitory concentration (MIC) of the compounds was determined using the microbroth dilution technique in accordance with NCCLS guidelines, employing Mueller-Hinton broth (National Committee for Clinical Laboratory Standards, NCCLS, 1995 “Methods for dilution antimicrobial susceptibility tests for bacteria that grow aerobically”—approved standard M7-A5).
(§4) The compounds were tested in isolation, at different concentrations.

E. faecalis NCTC 5957 = assay: MIC, microbroth dilution (NCCLS), Table 1; format: cell-based; conditions: Enterococcus faecalis, NCTC5957
Description: as §3, §4

E. faecium NCTC 7171 = assay: MIC, microbroth dilution (NCCLS), Table 1; format: cell-based; conditions: Enterococcus faecium, NCTC7171
Description: as §3, §4

E. hirae ATCC 10541 = assay: MIC, microbroth dilution (NCCLS), Table 1; format: cell-based; conditions: Enterococcus hirae, ATCC10541
Description: as §3, §4

E. faecalis Phillips = assay: MIC, microbroth dilution (NCCLS), Table 1; format: cell-based; conditions: Enterococcus faecalis
Description: as §3, §4

E. faecalis 24592 = assay: MIC, microbroth dilution (NCCLS), Table 1; format: cell-based; conditions: Enterococcus faecalis, 24592
Description: as §3, §4

E. faecalis SFZ = assay: MIC, microbroth dilution (NCCLS), Table 1; format: cell-based; conditions: Enterococcus faecalis
Description: as §3, §4

VRE 300 1590 = assay: MIC, microbroth dilution (NCCLS), Table 1; format: cell-based, Enterococcus; conditions: Enterococcus, VRE
Description: as §3, §4

VRE 300 2043 = assay: MIC, microbroth dilution (NCCLS), Table 1; format: cell-based, Enterococcus; conditions: Enterococcus, VRE
Description: as §3, §4

VRE 1662 = assay: MIC, microbroth dilution (NCCLS), Table 1; format: cell-based, Enterococcus; conditions: Enterococcus, VRE
Description: as §3, §4

VRE 300 1562 = assay: MIC, microbroth dilution (NCCLS), Table 1; format: cell-based, Enterococcus; conditions: Enterococcus, VRE
Description: as §3, §4

E. faecalis ATCC 10541 = assay: Checkerboard microdilution MIC with PFOB, Table 2; format: cell-based
Text: The aim of the study was to detect any synergy between PFOB and the other antibiotics. For the purposes of the study, synergy was defined in accordance with the FIC (fractional inhibitory concentration) index, as disclosed by Lorian (1991, In “Antibiotics in Laboratory Medicine” 3rd edition, Eds. Williams & Wilkins; esp. p 434-443).

[1] = Enterococcus faecalis, read-out: MIC (alone) of Partner

O=C(O)[C@H]1/C(=C/CO)O[C@@H]2CC(=O)N21 [CA, clavulanic acid]
MIC of partner antibiotic in the presence of PFOB at 0.5 mg/L (E.faecalis 78097 (van B); E.faecalis 78097 (van B), PFOB 0.5 mg/L): >64 µg/mL | MIC of partner antibiotic in the presence of PFOB at 1 mg/L (E.faecalis 78097 (van B); E.faecalis 78097 (van B), PFOB 1 mg/L): >64 µg/mL | MIC of partner antibiotic in the presence of PFOB at 2 mg/L (E.faecalis 78097 (van B); E.faecalis 78097 (van B), PFOB 2 mg/L): >64 µg/mL | MIC of partner antibiotic in the presence of PFOB at 4 mg/L (E.faecalis 78097 (van B); E.faecalis 78097 (van B), PFOB 4 mg/L): >64 µg/mL | MIC of partner antibiotic in the presence of PFOB at 8 mg/L (E.faecalis 78097 (van B); E.faecalis 78097 (van B), PFOB 8 mg/L): >64 µg/mL | MIC of partner antibiotic in the presence of PFOB at 16 mg/L (E.faecalis 78097 (van B); E.faecalis 78097 (van B), PFOB 16 mg/L): >64 µg/mL | MIC of partner antibiotic in the presence of PFOB at 32 mg/L (E.faecalis 78097 (van B); E.faecalis 78097 (van B), PFOB 32 mg/L): >64 µg/mL | MIC (E.faecalis 78097 (van B); [1]): > 64 µg/mL | MIC of partner antibiotic in the presence of PFOB at 0.5 mg/L (E. faecalis 5659 (vanA); E. faecalis 5659 (vanA), PFOB 0.5 mg/L): >64 µg/mL | MIC of partner antibiotic in the presence of PFOB at 1 mg/L (E. faecalis 5659 (vanA); E. faecalis 5659 (vanA), PFOB 1 mg/L): >64 µg/mL | MIC of partner antibiotic in the presence of PFOB at 2 mg/L (E. faecalis 5659 (vanA); E. faecalis 5659 (vanA), PFOB 2 mg/L): >64 µg/mL | MIC of partner antibiotic in the presence of PFOB at 4 mg/L (E. faecalis 5659 (vanA); E. faecalis 5659 (vanA), PFOB 4 mg/L): >64 µg/mL | MIC of partner antibiotic in the presence of PFOB at 8 mg/L (E. faecalis 5659 (vanA); E. faecalis 5659 (vanA), PFOB 8 mg/L): >64 µg/mL | MIC of partner antibiotic in the presence of PFOB at 16 mg/L (E. faecalis 5659 (vanA); E. faecalis 5659 (vanA), PFOB 16 mg/L): >64 µg/mL | MIC of partner antibiotic in the presence of PFOB at 32 mg/L (E. faecalis 5659 (vanA); E. faecalis 5659 (vanA), PFOB 32 mg/L): >64 µg/mL | MIC (E. faecalis 5659 (vanA); [1]): > 64 µg/mL | MIC of partner antibiotic in the presence of PFOB at 0.5 mg/L (E. faecalis ATCC 29212; E. faecalis ATCC 29212, PFOB 0.5 mg/L): >64 µg/mL | MIC of partner antibiotic in the presence of PFOB at 1 mg/L (E. faecalis ATCC 29212; E. faecalis ATCC 29212, PFOB 1 mg/L): >64 µg/mL | MIC of partner antibiotic in the presence of PFOB at 2 mg/L (E. faecalis ATCC 29212; E. faecalis ATCC 29212, PFOB 2 mg/L): >64 µg/mL | MIC of partner antibiotic in the presence of PFOB at 4 mg/L (E. faecalis ATCC 29212; E. faecalis ATCC 29212, PFOB 4 mg/L): >64 µg/mL | MIC of partner antibiotic in the presence of PFOB at 8 mg/L (E. faecalis ATCC 29212; E. faecalis ATCC 29212, PFOB 8 mg/L): >64 µg/mL | MIC of partner antibiotic in the presence of PFOB at 16 mg/L (E. faecalis ATCC 29212; E. faecalis ATCC 29212, PFOB 16 mg/L): >64 µg/mL | MIC of partner antibiotic in the presence of PFOB at 32 mg/L (E. faecalis ATCC 29212; E. faecalis ATCC 29212, PFOB 32 mg/L): >64 µg/mL | MIC (E. faecalis ATCC 29212; Enterococcus faecalis, ATCC29212, read-out: MIC (alone) of Partner): > 64 µg/mL | synergy with PFOB (enterococci): No synergy | effect on the MIC of CAZ (Enterococcus strains; clavulanic acid added at 4 mg/L): no significant effect | activity in isolation against the Enterococcus strains tested (Enterococcus strains; compound alone, all strains of Table 1): inactive | MIC (E. faecalis NCTC 5957): > 128 µg/mL | MIC (E. faecium NCTC 7171): > 128 µg/mL | MIC (E. hirae ATCC 10541): > 128 µg/mL | MIC (E. faecalis Phillips): > 128 µg/mL | MIC (E. faecalis 24592): > 128 µg/mL | MIC (E. faecalis SFZ): > 128 µg/mL | MIC (VRE 300 1590): > 128 µg/mL | MIC (VRE 300 2043): > 128 µg/mL | MIC (VRE 1662): > 128 µg/mL | MIC (VRE 300 1562): > 128 µg/mL | MIC of partner antibiotic in the presence of PFOB at 0.5 mg/L (E. faecalis ATCC 10541; E. faecalis ATCC 10541, PFOB 0.5 mg/L): >64 µg/mL | MIC of partner antibiotic in the presence of PFOB at 1 mg/L (E. faecalis ATCC 10541; E. faecalis ATCC 10541, PFOB 1 mg/L): >64 µg/mL | MIC of partner antibiotic in the presence of PFOB at 2 mg/L (E. faecalis ATCC 10541; E. faecalis ATCC 10541, PFOB 2 mg/L): >64 µg/mL | MIC of partner antibiotic in the presence of PFOB at 4 mg/L (E. faecalis ATCC 10541; E. faecalis ATCC 10541, PFOB 4 mg/L): >64 µg/mL | MIC of partner antibiotic in the presence of PFOB at 8 mg/L (E. faecalis ATCC 10541; E. faecalis ATCC 10541, PFOB 8 mg/L): >64 µg/mL | MIC of partner antibiotic in the presence of PFOB at 16 mg/L (E. faecalis ATCC 10541; E. faecalis ATCC 10541, PFOB 16 mg/L): >64 µg/mL | MIC of partner antibiotic in the presence of PFOB at 32 mg/L (E. faecalis ATCC 10541; E. faecalis ATCC 10541, PFOB 32 mg/L): >64 µg/mL | MIC (E. faecalis ATCC 10541; Enterococcus faecalis, ATCC10541, read-out: MIC (alone) of Partner): > 64 µg/mL
